# According to US20240368173A1, “TRICYCLIC GPR65 MODULATORS” (PATHIOS THERAPEUTICS LIMITED, priority 2021, published 2024):
# Read-outs that look alike come from different tables or passages of the source.
# Target: human recombinant GPR65 (Homo sapiens, UniProt Q8IYL9)
# Experiment: Human GPR65 cAMP HTRF antagonist assay
# Format: cell-based
# Summary of the method: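 Antagonism measured as suppression of the cAMP rise when pH is dropped to 7.2 (control wells pH 7.9) in 1321N1 cells stably carrying human GPR65. Cells in KRH with 1 mM IBMX and 200 μM EDTA saw compound 30 min, then acid stimulation 30 min; HTRF cAMP detection, normalised, 4-parameter logistic IC50.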
# [1] = 1321N1-hrGPR65 cells, cAMP HTRF, assay pH 7.2, read-out: hGPR65 IC50 (Activity of selected compounds according to the invention)
# Chain of human recombinant GPR65 (Q8IYL9 whole entry): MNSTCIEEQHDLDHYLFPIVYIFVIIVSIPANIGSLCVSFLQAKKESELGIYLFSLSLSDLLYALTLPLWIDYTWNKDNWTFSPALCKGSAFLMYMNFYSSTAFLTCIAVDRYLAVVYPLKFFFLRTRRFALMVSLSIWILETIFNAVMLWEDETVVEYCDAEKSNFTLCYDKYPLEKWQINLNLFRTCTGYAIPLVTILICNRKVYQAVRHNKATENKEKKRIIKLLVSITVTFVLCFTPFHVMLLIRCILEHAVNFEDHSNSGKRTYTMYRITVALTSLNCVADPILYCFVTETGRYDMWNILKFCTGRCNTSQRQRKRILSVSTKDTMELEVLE
SMILES,IC50 [nM],IC50 [1] [nM]
"O=C(Nc1cc(Cl)c(-c2ccc3nonc3c2)cc1F)N1C2CCC1C(F)(F)c1c2ccnc1F (racemic) [Compound 289, (±)-N-(4-(Benzo[c][1,2,5]oxadiazol-5-yl)-5-chloro-2-fluorophenyl)-1,9,9-trifluoro-6,7,8,9-tetrahydro-5H-5,8-epiminocyclohepta[c]pyridine-10-carboxamide]",< 500,–
"CC(C)Oc1ccc(-c2cc(F)c(NC(=O)N3[C@H]4CC[C@@H]3c3ccnc(F)c3C4)cc2Cl)cn1 [Compound 274, (5R,8S)-N-(5-Chloro-2-fluoro-4-(6-isopropoxypyridin-3-yl)phenyl)-1-fluoro-6,7,8,9-tetrahydro-5H-5,8-epiminocyclohepta[c]pyridine-10-carboxamide]",< 500,–
"O=C(Nc1cc(Cl)c(-c2ncco2)cc1F)N1[C@H]2CC[C@@H]1c1n[nH]c(=O)cc1C2 [Compound 181, (6S,9R)-N-(5-Chloro-2-fluoro-4-(oxazol-2-yl)phenyl)-3-oxo-3,5,6,7,8,9-hexahydro-2H-6,9-epiminocyclohepta[c]pyridazine-10-carboxamide]",500 to 5000,–
"O=C(Nc1cc(Br)c(Cl)cc1F)N1[C@@H]2CC[C@H]1c1c[nH]c(=O)nc1C2 [Compound 27, (5S,8R)-N-(5-Bromo-4-chloro-2-fluorophenyl)-2-oxo-3,5,6,7,8,9-hexahydro-2H-5,8-epiminocyclohepta[d]pyrimidine-10-carboxamide]",–,500 to 5000
"O=C(Nc1cc(F)c(-c2ccc(F)nc2)cc1F)N1[C@H]2CC[C@@H]1c1ccnc(F)c1C2 [Compound 242, (5R,8S)-N-(2,5-Difluoro-4-(6-fluoropyridin-3-yl)phenyl)-1-fluoro-6,7,8,9-tetrahydro-5H-5,8-epiminocyclohepta[c]pyridine-10-carboxamide]",< 500,–
"O=C(Nc1ccc(OC2COC2)c(Cl)c1)N1[C@H]2CC[C@@H]1c1ccnc(F)c1C2 [Compound 71, (5R,8S)-N-(3-Chloro-4-(oxetan-3-yloxy)phenyl)-1-fluoro-6,7,8,9-tetrahydro-5H-5,8-epiminocyclohepta[c]pyridine-10-carboxamide]",–,500 to 5000
"CN1C(=O)Cc2ccc(-c3cc(F)c(NC(=O)N4[C@H]5CC[C@@H]4c4n[nH]c(=O)cc4C5)cc3Cl)cc21 [Compound 163, (6S,9R)-N-(5-Chloro-2-fluoro-4-(1-methyl-2-oxoindolin-6-yl)phenyl)-3-oxo-3,5,6,7,8,9-hexahydro-2H-6,9-epiminocyclohepta[c]pyridazine-10-carboxamide]",< 500,–
"O=C(Nc1cc(Cl)c(-c2cc(F)c3nonc3c2)cc1F)N1[C@H]2CC[C@@H]1c1n[nH]c(=O)cc1C2 [Compound 323, (6S,9R)-N-(5-Chloro-2-fluoro-4-(7-fluorobenzo[c][1,2,5]oxadiazol-5-yl)phenyl)-3-oxo-3,5,6,7,8,9-hexahydro-2H-6,9-epiminocyclohepta[c]pyridazine-10-carboxamide]",< 500,–
"O=C(Nc1cc(Cl)c(-c2ccc(OC3CC(F)(F)C3)nc2)cc1F)N1[C@H]2CC[C@@H]1c1n[nH]c(=O)cc1C2 [Compound 292, (6S,9R)-N-(5-Chloro-4-(6-(3,3-difluorocyclobutoxy)pyridin-3-yl)-2-fluorophenyl)-3-oxo-3,5,6,7,8,9-hexahydro-2H-6,9-epiminocyclohepta[c]pyridazine-10-carboxamide]",< 500,–
"O=C(Nc1ccc(C(F)(F)F)c(Br)c1)N1[C@@H]2CC[C@H]1c1n[nH]c(=O)cc1C2 [Compound 30, (6R,9S)-N-(3-Bromo-4-(trifluoromethyl)phenyl)-3-oxo-3,5,6,7,8,9-hexahydro-2H-6,9-epiminocyclohepta[c]pyridazine-10-carboxamide]",> 5000,–
"O=C(Nc1ccc(N2CC3CCC(C2)O3)cc1)N1[C@H]2CC[C@@H]1c1ccnc(F)c1C2 [Compound 62, (5R,8S)-N-(4-(8-Oxa-3-azabicyclo[3.2.1]octan-3-yl)phenyl)-1-fluoro-6,7,8,9-tetrahydro-5H-5,8-epiminocyclohepta[c]pyridine-10-carboxamide]",–,> 5000
"O=C(Nc1cc(Cl)c(Cl)cc1F)N1[C@H]2CC[C@@H]1c1ncccc1C2 [Compound 90, (6S,9R)-N-(4,5-Dichloro-2-fluorophenyl)-6,7,8,9-tetrahydro-5H-6,9-epiminocyclohepta[b]pyridine-10-carboxamide]",–,> 5000
"O=C(Nc1cc(Cl)c(-c2ccc(OC(F)F)nc2)cc1F)N1[C@H]2CC[C@@H]1c1c[nH]c(=O)cc1C2 [Compound 325, (6S,9R)-N-(5-Chloro-4-(6-(difluoromethoxy)pyridin-3-yl)-2-fluorophenyl)-3-oxo-3,5,6,7,8,9-hexahydro-2H-6,9-epiminocyclohepta[c]pyridine-10-carboxamide]",< 500,–
"O=C(Nc1cc(C(F)(F)F)c(-c2cnc3nonc3c2)cc1F)N1[C@H]2CC[C@@H]1c1n[nH]c(=O)cc1C2 [Compound 269, (6S,9R)-N-(4-([1,2,5]Oxadiazolo[3,4-b]pyridin-6-yl)-2-fluoro-5-(trifluoromethyl)phenyl)-3-oxo-3,5,6,7,8,9-hexahydro-2H-6,9-epiminocyclohepta[c]pyridazine-10-carboxamide]",< 500,–
"O=C(Nc1cc(Cl)c(-c2cnc3nonc3c2)cc1F)N1[C@H]2CC[C@@H]1c1c[nH]c(=O)cc1C2 [Compound 189, (6S,9R)-N-(4-([1,2,5]oxadiazolo[3,4-b]pyridin-6-yl)-5-chloro-2-fluorophenyl)-3-oxo-3,5,6,7,8,9-hexahydro-2H-6,9-epiminocyclohepta[c]pyridine-10-carboxamide]",< 500,–
"O=C(Nc1cc(Cl)c(-c2ccccc2)cc1F)N1[C@H]2CC[C@@H]1c1ccnc(F)c1C2 [Compound 250, (5R,8S)-N-(2-Chloro-5-fluoro-[1,1′-biphenyl]-4-yl)-1-fluoro-6,7,8,9-tetrahydro-5H-5,8-epiminocyclohepta[c]pyridine-10-carboxamide]",< 500,–
"O=C(Nc1cc(Cl)c(C2CC2)cc1F)N1[C@H]2CC[C@@H]1c1c[nH]c(=O)cc1C2 [Compound 82, (6S,9R)-N-(5-Chloro-4-cyclopropyl-2-fluorophenyl)-3-oxo-3,5,6,7,8,9-hexahydro-2H-6,9-epiminocyclohepta[c]pyridine-10-carboxamide]",< 500,–
"CS(=O)(=O)c1ccc(-c2cc(F)c(NC(=O)N3[C@H]4CC[C@@H]3c3n[nH]c(=O)cc3C4)cc2Cl)cc1 [Compound 131, (6S,9R)-N-(2-Chloro-5-fluoro-4′-(methylsulfonyl)-[1,1′-biphenyl]-4-yl)-3-oxo-3,5,6,7,8,9-hexahydro-2H-6,9-epiminocyclohepta[c]pyridazine-10-carboxamide]",< 500,–
"CC(C)(O)c1ccc(NC(=O)N2[C@H]3CC[C@@H]2c2ccnc(F)c2C3)cc1Cl [Compound 60, (5R,8S)—N-(3-Chloro-4-(2-hydroxypropan-2-yl)phenyl)-1-fluoro-6,7,8,9-tetrahydro-5H-5,8-epiminocyclohepta[c]pyridine-10-carboxamide]",< 500,–
"O=C(Nc1cc(Cl)c(Br)cc1F)N1[C@H]2CC[C@@H]1c1n[nH]c(=O)cc1C2 [Compound 32, (6S,9R)-N-(4-Bromo-5-chloro-2-fluorophenyl)-3-oxo-3,5,6,7,8,9-hexahydro-2H-6,9-epiminocyclohepta[c]pyridazine-10-carboxamide]",< 500,–
